In ChEMBL document CHEMBL5634164, “Absolute Configuration of Oxabornyl Polyenes Prugosenes A1-A3 and Structural Revision of Prugosene A2” (J Nat Prod, 2024) one finds CC50 and IC50 data, which are given here for four molecules.

The nature of data set [1]: Cytotoxicity against HEp-2 cells. To be noted: human. It counts as toxicity, cell-based.
Data set [2] concerns Respiratory syncytial virus. As to the kind of experiment: Antiviral activity against RSV A2 ATCC VR-1540 infected in HEp-2 cells assessed as inhibition of virus induced cytopathic effect measured after 72 hrs. The data set is classed as functional, organism-based. To be noted: human respiratory syncytial virus, A2 ATCC VR-1540, HEp-2, 72 h.

Bounds are passed on as bounds.

Turning to `CC1=C[C@@](C)(O)[C@H](/C(C)=C/C=C/C=C/C=C/C=C/C2(C)C3OC(=O)C2(C)C(=O)C3C)O[C@H]1C` (stereo partly drawn), the CC50 in data set [1] is above 100 µM. For the same molecule, the 50% inhibitory concentration (IC50) in data set [2] came out at 12 µM.

The molecule `CC1=C[C@@](C)(O)[C@@H](/C(C)=C/C=C/C=C/C=C/C=C/C2(C)C3OC(=O)C2(C)C(=O)C3C)O[C@H]1C` (stereo partly drawn) displayed a CC50 in data set [1] above 100 µM. In addition, the 50% inhibitory concentration (IC50) in data set [2] turned out to be 25 µM.

`CC1=C[C@](C)(O)[C@H](C)O[C@@H]1/C(C)=C/C=C/C=C/C=C/C=C/C1(C)C2OC(=O)C1(C)C(=O)C2C` (stereo partly drawn) displayed a 50% cytotoxic concentration (CC50) in data set [1] above 100 µM. In addition, the IC50 in data set [2] was found to be 6.3 µM.

As for `NC(=O)c1ncn([C@@H]2O[C@H](CO)[C@@H](O)[C@H]2O)n1` [RIBAVIRIN], the 50% cytotoxic concentration (CC50) in data set [1] was above 100 µM. The IC50 in data set [2] amounted to 15 µM.
